Laboratory results taken from publication PMC10412832 (Computational and Structural Biotechnology Journal, 2023).
Read-outs that look alike come from different tables or passages of the source. Ends that are not written are not given here.

How the values were obtained:
[1] = tested on: SARS-CoV-2; conditions: cited from earlier work
[2] = biological target: recombinant SARS-CoV-2 M^pro (Severe acute respiratory syndrome coronavirus 2, UniProt P0DTD1)
[3] = ref [44]; cited from earlier work
[4] = ref [46]; cited from earlier work

## LL-37: Source: Homo sapiens (LLGDFFRKSKEKIGKEFKRIVQRIKDFLRNLVPRTES; Antibacterial peptide LL-37; UniProt P49913 134-170, looked up)
[1]; ref [36]
  Effect against viruses / SARS-CoV-2: effective against viruses and a few against SARS-CoV-2

## Protegrin 1: Source: Sus scrofa (RGGRLCYCRRRFCVCVGR; ends and bridges not checked; cysteine pairing not given here; UniProt P32194 131-148, looked up)
[1]; ref [36]
  Effect against viruses / SARS-CoV-2: effective against viruses and a few against SARS-CoV-2

## Protegrin 2: cysteine rich potent antimicrobial peptide originally isolated from pigs; two cysteine-cysteine disulfide bridges; PDB ID 2MUH
[2]
  M^pro proteolytic cleavage activity: inhibits the proteolytic cleavage activity of M^pro
[3]
  Antimicrobial activity: potent
[4]
  Toxicity: low toxicity

## beta-defensin 1: naturally occurring antimicrobial peptide (DHYNCVSSGGQCLYSACPIFTKIQGTCYRGKAKCCK; ends and bridges not checked; cysteine pairing not given here; UniProt P60022 33-68, looked up)
[1]; ref [36]
  Effect against viruses / SARS-CoV-2: effective against viruses and a few against SARS-CoV-2

B1: human defensin 5: Source: Homo sapiens (peptide, UniProt Q01523 20-94, looked up)
Defensin alpha 5: ESLQERADEATTQKQSGEDNQDLAISFAGNGLSALRTSGSQARATCYCRTGRCATRESLSGVCEISGRLYRLCCR
modifications: Defensin-5
[1]; ref [38], [39]
  Effect against viruses / SARS-CoV-2: effective against viruses and a few against SARS-CoV-2
